Reference: paper PMC2659609 (Molecular cancer therapeutics, 2008)

Experiments:
[1] = system: human hepatoma cell line HepG2; assay: General cell cytotoxicity assay; assay type: cell-based; conditions: 20μM, 72 hours, media and compounds replaced every 24 hours
[2] = system: mouse prostate epithelial cell line MP-1; assay: General cell cytotoxicity assay; assay type: cell-based; conditions: 20μM, 72 hours, media and compounds replaced every 24 hours
[3] = target: thrombin (Bos taurus, UniProt P00735); assay: Thrombin activity assay, chromogenic substrate pyroGlu-Pro-Arg-pNA, kinetic; assay type: biochemical
[4] = system: HEK 293FT cells; assay: Toxicity to HEK 293FT cells under pericellular assay conditions; assay type: cell-based; conditions: 24-hour treatment
[5] = system: human prostate cancer cell line LNCaP; assay: General cell cytotoxicity assay; assay type: cell-based; conditions: 20μM, 72 hours, media and compounds replaced every 24 hours
[6] = target: purified recombinant human hepsin (Homo sapiens, UniProt P05981); assay: Hepsin activity assay, chromogenic substrate pyroGlu-Pro-Arg-pNA, kinetic
purified recombinant human hepsin, sequence (P05981 46-417): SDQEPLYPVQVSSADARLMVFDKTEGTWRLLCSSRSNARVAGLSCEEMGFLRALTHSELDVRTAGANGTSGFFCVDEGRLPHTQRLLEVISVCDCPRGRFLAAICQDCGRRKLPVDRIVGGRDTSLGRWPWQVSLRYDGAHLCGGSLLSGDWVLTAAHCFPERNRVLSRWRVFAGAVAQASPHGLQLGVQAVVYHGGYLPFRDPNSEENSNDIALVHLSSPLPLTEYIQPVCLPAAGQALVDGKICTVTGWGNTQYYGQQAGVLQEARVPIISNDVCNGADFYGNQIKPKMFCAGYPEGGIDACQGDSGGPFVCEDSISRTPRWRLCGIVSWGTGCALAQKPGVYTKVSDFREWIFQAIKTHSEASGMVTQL

[7] = target: full-length wild-type mouse hepsin expressed in HEK 293FT cells (Mus musculus, UniProt O35453); assay: Hepsin-dependent pericellular serine proteolytic activity assay; assay type: cell-based
full-length wild-type mouse hepsin expressed in HEK 293FT cells, sequence (O35453 1-416 isoform O35453-2): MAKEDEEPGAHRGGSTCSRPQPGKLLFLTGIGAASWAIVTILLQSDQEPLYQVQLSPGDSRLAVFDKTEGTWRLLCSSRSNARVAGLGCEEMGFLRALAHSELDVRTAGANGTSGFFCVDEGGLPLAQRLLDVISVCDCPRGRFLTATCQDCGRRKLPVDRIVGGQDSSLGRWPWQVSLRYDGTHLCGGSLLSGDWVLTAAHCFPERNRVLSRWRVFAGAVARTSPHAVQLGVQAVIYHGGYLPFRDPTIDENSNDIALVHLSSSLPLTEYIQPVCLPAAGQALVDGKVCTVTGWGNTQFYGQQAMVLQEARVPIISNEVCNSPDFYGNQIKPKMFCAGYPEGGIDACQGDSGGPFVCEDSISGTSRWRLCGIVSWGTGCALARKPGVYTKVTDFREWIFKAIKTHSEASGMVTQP

[8] = target: trypsin (Sus scrofa, UniProt P00761); assay: Trypsin activity assay, chromogenic substrate pyroGlu-Pro-Arg-pNA, kinetic; assay type: biochemical
trypsin, sequence (P00761 9-231): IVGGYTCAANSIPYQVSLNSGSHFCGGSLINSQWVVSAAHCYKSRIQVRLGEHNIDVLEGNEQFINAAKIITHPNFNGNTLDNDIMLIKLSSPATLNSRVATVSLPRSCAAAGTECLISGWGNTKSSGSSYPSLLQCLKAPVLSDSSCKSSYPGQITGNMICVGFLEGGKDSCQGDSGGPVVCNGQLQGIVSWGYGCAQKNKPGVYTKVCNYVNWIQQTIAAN

[9] = approximate; cited from earlier work
[10] = mainly to albumin; cited from earlier work

For `O=C1c2c(O)cccc2Cc2cccc(O)c21` [Compound 15, anthralin], which “cytotoxicity to HepG2 cells” value [1] is on record?
The value was “toxic”.

What about the “cytotoxicity to MP-1 cells” value [2] of the same molecule?
The value was “toxic”.

What about the IC50 [3] of the same molecule?
The IC50 was greater than 20 µM.

And the “toxicity to HEK 293FT cells” value ([4]; 50μM)?
The value was “substantial toxicity”.

And the “cytotoxicity to LNCaP cells” value [5]?
Its value is “toxic”.

Which “cytotoxicity to HepG2 cells” value [1] does the source give for `Oc1nc2cc(Cl)c(Cl)cc2nc1O` [Compound 16, 2,3-dihydroxy-6,7-dichloroquinoxaline] here?
Its value is “limited or no cytotoxicity”.

What about the “cytotoxicity to MP-1 cells” value [2] of the same molecule?
The value was “limited or no cytotoxicity”.

What about the “cytotoxicity to LNCaP cells” value [5] of the same molecule?
Its value is “limited or no cytotoxicity”.

For `Cl.NCCc1ccc(S(=O)(=O)F)cc1` [PEFAbloc], which “inhibition of hepsin proteolytic activity (in words)” value ([6]; 4mM PEFAbloc, 30 minutes, 0.4nM hepsin) is on record?
The value was “completely inhibited”.

For `Cc1cccc(CN2CCN(C(c3ccccc3)c3ccc(Cl)cc3)CC2)c1` (stereo not shown) [Compound 13, meclizine], which “cytotoxicity to HepG2 cells” value [1] is on record?
The value was “limited or no cytotoxicity”.

And the “equilibration time dependence of hepsin inhibition” value [6]?
Its value is “significantly increased with extended equilibration time”.

What about the “reversibility of hepsin inhibition by dilution” value ([6]; inhibitor at its IC50, 1 hour at room temperature, then diluted) of the same molecule?
The value was “not reversible by dilution”.

And the “attenuation of pericellular proteolytic activity” value ([7]; 50μM, normalized to hepsin expression level, relative to vehicle)?
Its value is roughly 25%.

What about the “cytotoxicity to MP-1 cells” value [2] of the same molecule?
The value was “limited or no cytotoxicity”.

What about the IC50 [3] of the same molecule?
The IC50 was greater than 20 µM.

What about the “overt toxicity to HEK 293FT cells / effect on hepsin expression levels” value ([4]; 20 and 50μM) of the same molecule?
The value was “without substantially affecting hepsin expression levels or displaying overt toxicity”.

What about the IC50 [8] of the same molecule?
Its IC50 is greater than 20 µM.

What about the “cytotoxicity to LNCaP cells” value [5] of the same molecule?
The value was “limited or no cytotoxicity”.

For `CC(C)(Sc1cc(C(C)(C)C)c(O)c(C(C)(C)C)c1)Sc1cc(C(C)(C)C)c(O)c(C(C)(C)C)c1` [Compound 14, probucol], which “cytotoxicity to HepG2 cells” value [1] is on record?
Its value is “limited or no cytotoxicity”.

And the “attenuation of pericellular proteolytic activity (in words)” value ([7]; 20 and 50μM, 24 hours)?
Its value is “did not reduce”.

And the “cytotoxicity to MP-1 cells” value [2]?
The value was “limited or no cytotoxicity”.

And the IC50 [3]?
Its IC50 is greater than 20 µM.

What about the logP [9] of the same molecule?
Its logP is roughly 10.

And the “cytotoxicity to LNCaP cells” value [5]?
The value was “limited or no cytotoxicity”.

With `O=C1Nc2ccc(Cl)cc2[C@@](C#CC2CC2)(C(F)(F)F)O1` [efavirenz] as the molecule, how does the “protein bound in plasma” value [10] read?
The value was “more than 99%”.
